Read-outs that look alike come from different tables or passages of the source.
Assays:
A549 cells = test: MTT assay, percent survival of A549 cells; format: cell-based; conditions: A549; for IC50: Table 2, read-out: Calculated IC 50 (uM concentration)
Protocol: 1. Prepare a suspension of A549 cells at 2×10^5 cells per mL in supplemented DMEM/F12 growth medium.
2. Plate 2×10^4 cells per well in a 96 well cell culture plate by adding 100 μL of stock suspension to each well.
3. For each platinum compound (already in solution), prepare a readily usable stock solution in DMEM/F12 medium.
4. For each compound generate triplicate trials of 0, 10, 20, 30, 40, 50, 60, and 70 μM concentration. This is achieved in situ by adding appropriate volumes of stock solution to each well along with the volume of untreated medium necessary to generate the desired concentration in a final volume of 200 μL.
5. Gently agitate plates to mix contents. Incubate at 37° C., 7% CO2 for 45 hours.
6. Add 20 μL of 5 mg/mL MTT solution (in PBS) to each well.
7. Gently agitate plates to mix contents and incubate an additional 3 hours to allow product development.
8. Remove plates from incubator and agitate to cause settling of formazan product.
9. Aspirate out liquid contents of each well using needle and syringe and discard.
10. Add 200 μL DMSO to each well to dissolve formazan product.
11. Agitate plates until all of the formazan product is in solution and no purple crystals remain on the bottom surface of the wells.
12. Read the absorbance of each well at […] using Varian software for Cary 50 UV-vis Spectrophotometer with fiber optic probe accessory.
(§1) MTT assays are used for the quantitative determination of cellular proliferation and activation and for the quantitation of in vitro tumor cell sensitivity to anti-cancer compounds. The assay is based on the cleavage of the yellow tetrazolium salt MTT into purple colored formazan by metabolically active cells. Solubilized formazan product can be photometrically quantitated using an ELISA plate reader. A decrease in the number of living cells results in a decrease in total metabolic activity which leads to a decrease in color formation. Platinum complexes of the present invention were tested in MTT assays using A549 cells to determine anti-cancer cell activity. […] FIGS. 1, 2, and 4 show percent survival versus platinum complex concentration in graphical form.
as §1, with “FIGS. 8, 9,” for “FIGS. 1, 2,”, “and 11” for “and 4”

Stat3 = target: T1, Stat3 (Mus musculus, UniProt P42227); test: EMSA of nuclear extracts, Stat3 DNA-binding activity to hSIE probe; format: biochemical; conditions: in vitro
T1 construct: Nuclear extracts were prepared from NIH3T3/hEGFR cell that overexpress human epidermal growth factor (EGF) receptor and stimulated with EGF; endogenous in cells; host or cells: NIH3T3/hEGFR fibroblasts, EGF-stimulated (6 ng/ml, 15 min), nuclear extract
T1 sequence (P42227 whole entry): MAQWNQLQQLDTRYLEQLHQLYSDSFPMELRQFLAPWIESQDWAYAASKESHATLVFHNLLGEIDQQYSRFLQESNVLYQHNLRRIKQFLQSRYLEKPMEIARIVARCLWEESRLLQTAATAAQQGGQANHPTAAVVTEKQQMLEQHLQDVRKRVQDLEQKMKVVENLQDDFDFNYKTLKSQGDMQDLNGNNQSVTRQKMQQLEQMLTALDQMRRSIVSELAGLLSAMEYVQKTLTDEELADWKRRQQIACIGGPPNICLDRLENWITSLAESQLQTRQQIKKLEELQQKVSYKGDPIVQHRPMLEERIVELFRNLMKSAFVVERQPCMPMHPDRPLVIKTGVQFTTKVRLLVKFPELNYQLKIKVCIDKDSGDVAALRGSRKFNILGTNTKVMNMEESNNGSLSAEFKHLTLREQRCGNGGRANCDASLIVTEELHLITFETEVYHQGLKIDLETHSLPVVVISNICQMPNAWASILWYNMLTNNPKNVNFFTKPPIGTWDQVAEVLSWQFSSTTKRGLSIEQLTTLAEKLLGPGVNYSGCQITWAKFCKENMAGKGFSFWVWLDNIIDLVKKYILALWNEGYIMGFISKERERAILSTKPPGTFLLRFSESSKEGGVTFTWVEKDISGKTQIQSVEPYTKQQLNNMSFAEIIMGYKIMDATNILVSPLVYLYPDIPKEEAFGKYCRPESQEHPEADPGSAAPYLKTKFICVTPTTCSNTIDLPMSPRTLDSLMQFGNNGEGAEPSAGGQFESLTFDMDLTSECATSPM
Protocol: Nuclear Extract Preparation and Analysis by EMSA of HK-Designated Platinum Complexes.
Nuclear extracts were prepared from NIH3T3/hEGFR cell that overexpress human epidermal growth factor (EGF) receptor and stimulated with EGF (6 ng/ml) for 15 min. Nuclear extracts were pre-incubated with compounds for 30 min at room temperature prior to incubation with radiolabeled probe. The ^32P-labeled oligonucleotide probe used is hSIE (high affinity sis-inducible element, m67 variant, 5′-[…]-3′) (SEQ ID NO:1) that binds both Stat1 and Stat3.
Other platinum (IV) complexes were evaluated for inhibitory activity against STAT DNA-binding in vitro.

[1] = linear trend from percent survival vs. concentration data of Table 1
[2] = extrapolated from incomplete data (10-40 uM; CPA-31 10-30 μM), outside the measured range

Row | Compound | Average Absorbance (A549 cells; Table 1, 10 μM) | Percent Survival (A549 cells; Table 1, 10 μM) | Average Absorbance (A549 cells; Table 1, 20 μM) | Percent Survival (A549 cells; Table 1, 20 μM) | Average Absorbance (A549 cells; Table 1, 30 μM) | Percent Survival (A549 cells; Table 1, 30 μM) | Average Absorbance (A549 cells; Table 1, 40 μM) | Percent Survival (A549 cells; Table 1, 40 μM) | Average Absorbance (A549 cells; Table 3, 10 μM) | Percent Survival (A549 cells; Table 3, 10 μM) | Average Absorbance (A549 cells; Table 3, 20 μM) | Percent Survival (A549 cells; Table 3, 20 μM) | Average Absorbance (A549 cells; Table 3, 30 μM) | Percent Survival (A549 cells; Table 3, 30 μM) | Average Absorbance (A549 cells; Table 3, 40 μM) | Percent Survival (A549 cells; Table 3, 40 μM) | Average Absorbance (A549 cells; Table 3, 50 μM) | Percent Survival (A549 cells; Table 3, 50 μM) | Average Absorbance (A549 cells; Table 3, 60 μM) | Percent Survival (A549 cells; Table 3, 60 μM) | also measured
1 | [NH2][Pt]([NH2])([Cl])([Cl])([N+](=O)[O-])[o+]1c2cc(=O)ccc-2c(-c2ccccc2C(=O)O)c2ccc(O)cc21 [CPA-39] | 2.5313 | 107.2085% | 2.4307 | 102.9478% | 2.3599 | 99.9492% | 1.9611 | 83.0587% | 2.6556 | 108.7069% | 2.4616 | 100.7655% | 2.0894 | 85.5295% | 1.3568 | 55.5405% | 0.6566 | 26.8779% | 0.6086 | 24.9130% | Average Absorbance (A549 cells; Table 1, 50 μM): 1.0318; Percent Survival (A549 cells; Table 1, 50 μM): 43.7000%; Average Absorbance (A549 cells; Table 1, 60 μM): 0.7776; Percent Survival (A549 cells; Table 1, 60 μM): 32.9338%; Average Absorbance (A549 cells; Table 1, 70 μM): 0.9798; Percent Survival (A549 cells; Table 1, 70 μM): 41.4976%; IC50 (A549 cells; [1]): 56.4 µM; Average Absorbance (A549 cells; Table 3, 70 μM): 0.6166; Percent Survival (A549 cells; Table 3, 70 μM): 25.2405%; Disruption of Stat3 activity / ability to bind its consensus binding sequence (Stat3): strongly disrupt Stat3 activity
2 | [NH2][Pt]([NH2])([Cl])([Cl])[N+](=O)[O-].c1ccc(-c2oc(-c3ccccc3)c3ccccc23)cc1 [CPA-41] | 2.3706 | 100.4024% | 2.3827 | 100.9148% | 2.1124 | 89.4668% | 0.8648 | 36.6270% | 2.4500 | 100.2906% | 2.3805 | 97.4457% | 1.4686 | 60.1171% | 0.4210 | 17.2336% | 0.3647 | 14.9290% | 0.5549 | 22.7148% | IC50 (A549 cells; [2]): 40.7 µM; Average Absorbance (A549 cells; Table 3, 70 μM): 0.5445; Percent Survival (A549 cells; Table 3, 70 μM): 22.2891%; Disruption of Stat3 activity / ability to bind its consensus binding sequence (Stat3): strongly disrupt Stat3 activity
3 | N[N](c1cc([N+](=O)[O-])cc([N+](=O)[O-])c1)[Pt]([NH2])([NH2])([Cl])([Cl])[N+](=O)[O-] [CPA-43] | 2.4150 | 102.2828% | 1.8554 | 78.5820% | 2.1451 | 90.8517% | 1.3030 | 55.1861% | 2.5840 | 105.7759% | 2.2922 | 93.8311% | 1.4833 | 60.7188% | 0.6479 | 26.5218% | 0.4641 | 18.9979% | 0.6504 | 26.6241% | IC50 (A549 cells; [2]): 49.6 µM; Average Absorbance (A549 cells; Table 3, 70 μM): 0.5059; Percent Survival (A549 cells; Table 3, 70 μM): 20.7090%; Disruption of Stat3 activity / ability to bind its consensus binding sequence (Stat3): strongly disrupt Stat3 activity
4 | CCN(CC)c1ccc2c(-c3ccccc3C(=O)O)c3ccc(=[N+](CC)CC)cc-3[o+]([Pt]([NH2])([NH2])([Cl])([Cl])[N+](=O)[O-])c2c1.[Cl-] [CPA-46] | 2.4032 | 101.7831% | 2.2978 | 97.3190% | 2.2671 | 96.0188% | 1.8618 | 78.8531% | 2.5773 | 105.5017% | 2.4118 | 98.7269% | 1.9637 | 80.3840% | 1.2044 | 49.3021% | 0.6282 | 25.7153% | 0.6446 | 26.3867% | Average Absorbance (A549 cells; Table 1, 50 μM): 1.0285; Percent Survival (A549 cells; Table 1, 50 μM): 43.5602%; Average Absorbance (A549 cells; Table 1, 60 μM): 0.7041; Percent Survival (A549 cells; Table 1, 60 μM): 29.8208%; IC50 (A549 cells; [1]): 52.9 µM; Average Absorbance (A549 cells; Table 3, 70 μM): 0.6165; Percent Survival (A549 cells; Table 3, 70 μM): 25.2364%; Disruption of Stat3 activity / ability to bind its consensus binding sequence (Stat3): strongly disrupt Stat3 activity

— US7759510B2, “Platinum complexes and methods of use” (University of South Florida, priority 2003, dated 2010)
